Reference: paper PMC11920646 (Frontiers in Pharmacology, 2025)

How the values were obtained:
[1] = molecular target: T1, human MR (Homo sapiens, UniProt P08235); assay: Human MR radioligand binding (3H-aldosterone, recombinant MR from Sf9 cells); details: 3H-aldosterone 0.4 nM, 20 h, 4°C
T1 construct: host or cells: insect Sf9 cells
T1 sequence (P08235 1-984): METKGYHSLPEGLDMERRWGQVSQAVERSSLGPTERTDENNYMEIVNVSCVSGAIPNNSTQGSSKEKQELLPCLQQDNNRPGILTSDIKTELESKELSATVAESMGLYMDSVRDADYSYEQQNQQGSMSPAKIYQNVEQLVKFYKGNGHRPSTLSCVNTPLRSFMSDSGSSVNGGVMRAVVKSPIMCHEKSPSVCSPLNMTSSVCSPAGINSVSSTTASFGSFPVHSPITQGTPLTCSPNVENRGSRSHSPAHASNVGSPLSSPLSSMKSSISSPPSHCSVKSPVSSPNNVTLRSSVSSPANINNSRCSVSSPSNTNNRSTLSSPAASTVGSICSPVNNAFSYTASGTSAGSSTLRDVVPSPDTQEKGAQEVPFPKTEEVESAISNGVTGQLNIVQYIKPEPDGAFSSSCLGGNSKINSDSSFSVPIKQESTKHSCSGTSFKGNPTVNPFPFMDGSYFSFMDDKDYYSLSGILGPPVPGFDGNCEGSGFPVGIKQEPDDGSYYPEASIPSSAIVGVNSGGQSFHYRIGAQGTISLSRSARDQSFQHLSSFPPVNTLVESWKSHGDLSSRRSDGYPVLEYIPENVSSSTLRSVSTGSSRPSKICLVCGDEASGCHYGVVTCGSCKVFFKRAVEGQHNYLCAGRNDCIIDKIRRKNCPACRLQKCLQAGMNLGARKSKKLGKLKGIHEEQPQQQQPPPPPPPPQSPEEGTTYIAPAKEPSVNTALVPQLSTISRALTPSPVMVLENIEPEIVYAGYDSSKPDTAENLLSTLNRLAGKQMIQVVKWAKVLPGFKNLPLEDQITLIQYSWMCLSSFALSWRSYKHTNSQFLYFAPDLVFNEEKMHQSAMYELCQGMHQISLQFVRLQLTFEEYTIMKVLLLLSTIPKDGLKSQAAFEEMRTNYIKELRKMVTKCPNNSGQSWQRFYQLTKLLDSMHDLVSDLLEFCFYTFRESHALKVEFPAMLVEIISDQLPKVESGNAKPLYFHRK
Description: Scintillation counting of bound radioligand was conducted after 6 and 20 h of incubation (at 4°C), respectively. […] Scintillation counting of bound radioligand was conducted after 20 h of incubation at 4°C.
The same statistical methods were used for the MR binding assays, but using MathIQ™ software (ID Business Solutions Ltd., Woking, United Kingdom).
Percent inhibition of control specific binding was calculated as follows: […]
The half-maximal inhibitory concentration (IC50; i.e., the concentration causing a half-maximal inhibition of control specific binding) and Hill coefficients (nH) were determined by non-linear regression analysis of the competition curves generated with mean replicate values using the following Hill equation curve fitting: Y=D+ A-D1+ C/C50nH , where Y = specific binding, A = left asymptote of the curve, D = right asymptote of the curve, C = compound concentration, C50 = IC50, and nH = slope factor.
The inhibition constants (Ki) were calculated using the Cheng Prusoff equation:
where L = concentration of radioligand employed in the assay, and KD = affinity of the radioligand for the receptor (a Scatchard plot was used to determine the KD) (Cheng and Prusoff, 1973).

[2] = tested on: OPG release in human osteoblast cell line MG-63; assay: Inhibition of OPG release in MG-63 osteoblast cells; type: cell-based; details: MG-63 cells, 24 h
Description: ([Humphrey et al., 2006]). […] After a 24-h incubation in standard conditions, supernatant was collected and OPG measured using the human osteoprotegerin/TNFRSF11B DuoSet® ELISA (R&D Systems, Minneapolis, MN, United States), according to the manufacturer’s instructions (Supplementary Material). A 3-parameter nonlinear regression was performed using GraphPad PRISM v7.03 software (Graphpad Software Inc.) to determine IC50 values.
All incubations in this assay were conducted at room temperature. Anti-OPG capture antibodies, diluted in Dulbecco's phosphate-buffered saline (DPBS), were transferred into a coated 96-well plate (100 µL/well). After overnight incubation, and triplicate washing (400 µL/well) with wash buffer (0.05% Tween 20 in DPBS, pH 7.2–7.4), 300 µL of Reagent Diluent (1% bovine serum albumin [BSA] in DPBS) was added, followed by a 1-h incubation, and thereafter three washing steps again. Then, 100 µL of supernatant, standard or reagent diluent were added per well for a 2-h incubation. After repeating three washing steps, 100 µL of detection antibody diluted in reagent diluent (including normal goat serum) were added to each well, followed by a 2-h incubation. After repeating three washing steps, 100 µL of Streptavidin conjugated to horseradish-peroxidase solution was added per well for a 20-min incubation. Finally, 50 µL/well of stop solution was added. After gently shaking of the plate to ensure thorough mixing, the optical density of each well was determined immediately using the Eon™ Microplate Spectrophotometer (Bio Tek Instruments) set at 450 nm.
Supplementary Figure S2. […] Error bars indicate standard error of the mean. […] Log c, log concentration.

IC50 ([1]; read-out: Mineralocorticoid receptor IC50): 0.78 nM
Ki ([1]; read-out: Mineralocorticoid receptor Ki): 0.26 nM
IC50 ([2]; Homo sapiens): 3.1 ± 4.3 nM
Structure (SMILES): C[C@]12C=CC(=O)C=C1CC[C@@H]1[C@@H]2[C@@H](O)C[C@@]2(C)[C@H]1CC[C@]2(O)C(=O)CO [Prednisolone]
Inhibition of OPG release (maximal level) [2]: 100 ± 0%
Inhibition of OPG release (maximal level) ([2]; listed as prednisolone): fully inhibiting OPG release
